One data set deals with T1, CB1 receptor (Mus musculus, UniProt P47746).
T1 construct: from tissue; host or cells: mouse (CD1) brain minus cerebellum, membrane homogenate
As to the kind of experiment: CB1 radioligand binding, [3H]-CP-55,940 competition in mouse brain (minus cerebellum) homogenate. The settings on record: for Ki: mean ± standard error, five independent experiments in triplicate; for CB1-affinity decrease relative to 1a: compared with 1a (Ki 10.25 nM); for Selectivity KiCB2/KiCB1: ratio of KiCB2 to KiCB1. As for the experimental part: Radioligand binding experimental procedures previously reported by us were adopted.
(§1) Male CD1 mice weighing 30–35 g were killed by cervical dislocation and the brain (minus cerebellum) and spleen were rapidly removed and frozen. After thawing, tissues were homogenated in 20 vol. (wt/v) of ice-cold TME buffer (50 mM Tris-HCl, 1 mM EDTA and 3.0 mM MgCl2, pH 7.4). The homogenates were centrifuged at 1,086 ×g for 10 min at 4 °C, and the resulting supernatants were centrifuged at 45,000 ×g for 30 min.
(§2) All binding studies were performed in disposable glass tubes pre-treated with Sigma-Cote (Sigma Chemical Co., Ltd., Poole, UK), in order to reduce non-specific binding. The reaction was terminated by rapid filtration through Whatman GF/C filters presoaked in 0.5% polyethyleneimine (PEI) using a Brandell 36-sample harvester (Gaithersburg, MD, USA). Filters were washed five times with 4 mL aliquots of ice-cold Tris HCl buffer (pH 7.4) containing 1 mg/mL BSA. The filter bound radioactivity was measured in a liquid scintillation counter (Tricarb 2900, Packard, Meridien, […], USA) with 4 mL of scintillation fluid (Ultima Gold MV, Packard).
(§3) Protein determination was performed by means of a Bradford protein assay using BSA as a standard according to the protocol of the supplier (Bio-Rad, Milan, Italy).
(§4) All experiments were performed in triplicate and results were confirmed in at least five independent experiments. Data from radioligand inhibition experiments were analysed by nonlinear regression analysis of a Sigmoid Curve using Graph Pad Prism program. IC50 values were derived from the calculated curves and converted to Ki values as previously described.

A further data set addresses T2, CB2 receptor (Mus musculus, UniProt P47936).
T2 construct: from tissue; host or cells: mouse (CD1) spleen, membrane homogenate
As to the kind of experiment: CB2 radioligand binding, [3H]-CP-55,940 competition in mouse spleen homogenate. As to conditions: [3H]-CP-55,940, mouse spleen homogenate; mean ± standard error, five independent experiments in triplicate; read-out: KiCB2. How it is done:
Affinities at CB1R and CB2R for compounds 1c–j were assessed by competition of [^3H]-CP-55,940 in mouse brain (minus cerebellum) and spleen homogenates, respectively. Radioligand binding experimental procedures previously reported by us were adopted.
as §1
as §2, with “[^3H]-CP-55,940 binding was performed using the method previously described by Ruiu et al.. Briefly, the membranes (30–80 µg of protein) were incubated with 0.5–1 nM of [^3H]-CP-55,940 for 1 h at 30 °C in a final volume of 0.5 mL of TME buffer containing 5 mg/mL of fatty acid-free bovine serum albumin. Non-specific binding was estimated in the presence of 1 µM of CP-55,940. All” for “All”
as §3, §4

The subject of the next data set is CD1 mice. In words: Gastrointestinal transit (GIT), carmine marker. The settings on record: data not shown. Format: in vivo, mouse. The text has this:
The mouse isolated vas deferens is a nerve-smooth muscle preparation that serves as a highly sensitive and quantitative functional in vitro bioassay for cannabinoid CB1R agonists. The effect of CB1 agonists is related to the action on naturally expressed prejunctional neuronal CB1Rs to inhibit release of the contractile neurotransmitters, noradrenaline and ATP, which is provoked by electrical stimulation. It has been shown that CB1 antagonist derivatives are able to block or reduce the inhibition of the electrically evoked contraction amplitude of the vas deferens induced by CB1 agonists, with parallel dextral shifts in CB1R agonist log concentration-response curves in electrically stimulated tissues. According to previous studies concerning cannabinoid agents, a gastrointestinal transit test was adopted to confirm CB1 antagonism. […] Moreover, the capability of CB1 antagonist compounds both to block the constipation effect induced by cannabinoid agonists and to themselves increase themselves gastrointestinal motility has been reported.
The same procedure previously reported by Murineddu et al. was adopted to evaluate the effect of the compounds on GIT. CD1 mice weighing 30–35 g were used. Carmine (Sigma Chemical Co, St. Louis, MO, USA) was suspended (6% wt/v) in distilled water containing 0.5% methylcellulose and administered by gavage at the dose of 0.3 mL/mouse. Briefly, after 20 min from carmine administration, mice were sacrificed by cervical dislocation and the stomach and small intestine were removed and the omentum was separated, avoiding stretching. The length of the intestine was measured starting from the pyloric sphincter to the ileocecal junction. The distance travelled by the head of the marker was measured and expressed as a percent of the total length of the small intestine. Using this procedure, the marker was consistently found at approximately 50% of the small intestine, 20 min after its administration to naive mice.
20 min later, mice were killed by dislocation cervical and intestines were removed. […] The length of the intestine from the pyloric sphincter to the ileocecal junction and the distance travelled by the carmine front were both measured and recorded. Groups of n = 10 mice were used in each experiment.
Statistical analyses were performed by one-way ANOVA followed by Newman-Keuls post-hoc comparison.

A further data set concerns C57Bl6/J mice. In words: Acute food intake in fasted mice. The data set is classed as in vivo, mouse. As for the experimental part:
To further evaluate the potential application of these CB1 antagonists in the control of food intake and in obesity treatment, compound 1b was preliminarily tested in comparison with SR141716A in an acute in vivo assay using C57Bl6/J mice. The evaluation was carried out according to the animal model previously reported by Di Marzo [19].
It is well known that CB1Rs mediate the hyperphagic effect of cannabinoids. […] To test the potential anti-obesity effect of the new CB1 antagonist 1b we performed food intake experiments according to the acute animal model described by Di Marzo [19]. For a comparison we also reported the results concerning the assumed lead compound of this new series, derivative 1a.
A widely described method was used for the screening of the new CB1 antagonists in the food intake animal model. C57Bl6/J mice weighing 20–25 g were housed individually on a reverse light-dark cycle in a room with temperature and humidity control. The mice were fasted for 18 h before testing. Vehicle or CB1 antagonists were administered by an intraperitoneal injection and 15 min later a known amount of food was presented. Food pellets were weighed after each hour for three hours. Rimonabant was used as internal positive control in order to evaluate the efficacy of each compound. All animal experiments were performed according to the UE (CEE N° 86/609) guidelines for the care and use of experimental animals.
Two-way ANOVA with Bonferroni post-testing was performed using GraphPad Prism version 5.00 for Windows (GraphPad Software, San Diego CA, USA).

The mark [1] stands for this setting: [3H]-CP 55,940, mouse brain (minus cerebellum) homogenate, read-out: KiCB1.

Several values for one entry are separate records, joined by “and”; a condition that tells them apart may be missing. Equal values may be shown once. Read-outs that look alike come from different tables or passages of the source.

The text below walks through data of PMC6539809, “Development of Oxygen-Bridged Pyrazole-Based Structures as Cannabinoid Receptor 1 Ligands” (Molecules, 2019).

T1 sequence (P47746 whole entry): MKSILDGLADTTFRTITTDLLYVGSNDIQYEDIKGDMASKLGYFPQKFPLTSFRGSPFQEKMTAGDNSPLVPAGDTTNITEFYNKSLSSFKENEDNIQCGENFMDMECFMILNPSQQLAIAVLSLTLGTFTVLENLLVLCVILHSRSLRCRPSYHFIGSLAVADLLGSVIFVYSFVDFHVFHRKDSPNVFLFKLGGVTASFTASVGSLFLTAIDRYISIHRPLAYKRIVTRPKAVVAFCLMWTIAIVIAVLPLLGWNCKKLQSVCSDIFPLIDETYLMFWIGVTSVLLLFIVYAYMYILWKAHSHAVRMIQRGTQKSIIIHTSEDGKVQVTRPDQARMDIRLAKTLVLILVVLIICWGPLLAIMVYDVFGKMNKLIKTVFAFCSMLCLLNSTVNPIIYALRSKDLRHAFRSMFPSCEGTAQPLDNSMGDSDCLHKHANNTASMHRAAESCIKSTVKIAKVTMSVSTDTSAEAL
T2 sequence (P47936 whole entry): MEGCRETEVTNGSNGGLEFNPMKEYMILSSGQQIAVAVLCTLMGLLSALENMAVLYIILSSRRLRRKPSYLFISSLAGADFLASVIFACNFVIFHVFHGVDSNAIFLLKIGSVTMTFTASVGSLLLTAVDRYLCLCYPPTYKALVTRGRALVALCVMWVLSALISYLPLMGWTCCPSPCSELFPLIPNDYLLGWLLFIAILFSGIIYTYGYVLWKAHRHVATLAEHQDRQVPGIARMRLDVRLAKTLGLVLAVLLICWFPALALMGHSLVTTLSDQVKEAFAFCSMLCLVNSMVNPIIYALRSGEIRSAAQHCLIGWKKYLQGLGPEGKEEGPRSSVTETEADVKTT

As for `O=C(NN1CCCC1)c1nn(-c2ccc(Cl)cc2Cl)c2c1CCOc1cc(Cl)ccc1-2` [Compound 1c, 8-Chloro-1-(2,4-dichlorophenyl)-N-pyrrolidin-1-yl-4,5-dihydrobenzo-1H-6-oxa-cyclohepta[1,2-c]pyrazole-3-carbohydrazide], the melting point – broadly, the temperature of the solid-liquid transition – was 175 °C. Further, the Ki on CB1 receptor (setting [1]) was < 60 nM and 55.1 nM. Besides, on CB1 receptor, the “CB1-affinity decrease relative to 1a” value came out at 5.4 fold and the “Selectivity KiCB2/KiCB1” value was more than 57. For the same molecule, the Ki on CB2 receptor came out at 4500 ± 500 nM. Moreover, the “Effect on gastrointestinal transit compared with that of 1b” value in the data set on CD1 mice is “Analogue results”.

With `O=C(NN1CCCCCC1)c1nn(-c2ccc(Cl)cc2Cl)c2c1CCOc1cc(Cl)ccc1-2` [Compound 1d, 8-Chloro-1-(2,4-dichlorophenyl)-N-homopiperidin-1-yl-4,5-dihydrobenzo-1H-6-oxa-cyclohepta[1,2-c]pyrazole-3-carbohydrazide], the melting point is 137 to 138 °C. Moreover, the Ki at CB1 receptor (setting [1]) is < 60 nM and 35 nM. On CB1 receptor, the “CB1-affinity decrease relative to 1a” value is on record as 3.5 fold and the “Selectivity KiCB2/KiCB1” value is reported as more than 57. In addition, at CB2 receptor, the Ki is 2000 ± 50 nM. Moreover, the “Effect on gastrointestinal transit compared with that of 1b” value in the data set on CD1 mice is “Analogue results”.

Regarding `O=C(Nc1ccccc1)c1nn(-c2ccc(Cl)cc2Cl)c2c1CCOc1cc(Cl)ccc1-2` [Compound 1f, 8-Chloro-1-(2,4-dichlorophenyl)-N-phenyl-4,5-dihydrobenzo-1H-6-oxa-cyclohepta[1,2-c]pyrazole-3-carboxamide], the melting point is 130 °C. Moreover, the Ki on CB1 receptor (setting [1]) is 233 ± 33 nM. Also, at CB1 receptor, the “CB1-affinity decrease relative to 1a” value is reported as 23 fold. Moreover, the Ki at CB2 receptor turned out to be 4120 ± 620 nM.

In turn, `O=C(Nc1ccc(Cl)cc1)c1nn(-c2ccc(Cl)cc2Cl)c2c1CCOc1cc(Cl)ccc1-2` [Compound 1g, 8-Chloro-1-(2,4-dichlorophenyl)-N-(p-chlorophenyl)-4,5-dihydrobenzo-1H-6-oxa-cyclohepta[1,2-c]pyrazole-3-carboxamide] yielded a melting point of 239 °C. The Ki on CB1 receptor (setting [1]) was determined as 318 ± 36 nM. The Ki on CB2 receptor is more than 5000 nM.

Molecule `Cc1ccc(NC(=O)c2nn(-c3ccc(Cl)cc3Cl)c3c2CCOc2cc(Cl)ccc2-3)cc1` [Compound 1h, 8-Chloro-1-(2,4-dichlorophenyl)-N-tolyl-4,5-dihydrobenzo-1H-6-oxa-cyclohepta[1,2-c] pyrazole-3-carboxamide] yielded a melting point of 181 °C. The Ki on CB1 receptor (KiCB1, [3H]-CP 55,940, mouse brain (minus cerebellum) homogenate) was found to be 429 ± 49 nM. Moreover, on CB2 receptor, the Ki was more than 5000 nM.

For `COc1ccc(NC(=O)c2nn(-c3ccc(Cl)cc3Cl)c3c2CCOc2cc(Cl)ccc2-3)cc1` [Compound 1i, 8-Chloro-1-(2,4-dichlorophenyl)-N-(p-methoxyphenyl)-4,5-dihydrobenzo-1H-6-oxa-cyclohepta[1,2-c]pyrazole-3-carboxamide], the melting point turned out to be 214 °C. For the same molecule, on CB1 receptor (setting [1]), the Ki was 330 ± 45 nM. Besides, at CB2 receptor, the Ki is more than 5000 nM.

Regarding `O=C(Nc1ccc(C(F)(F)F)cc1)c1nn(-c2ccc(Cl)cc2Cl)c2c1CCOc1cc(Cl)ccc1-2` [Compound 1j], the melting point lay within 249 to 250 °C. Moreover, the Ki at CB1 receptor (setting [1]) was 459 ± 57 nM. At CB2 receptor, the Ki was more than 5000 nM.

For the molecule `Cc1c(C(=O)NN2CCCCC2)nn(-c2ccc(Cl)cc2Cl)c1-c1ccc(Cl)cc1` [rimonabant, N-piperidinyl-5-(4-chlorophenyl)-1-(2,4-dichlorophenyl)-4-methyl-1H-pyrazole-3-carboxamide, reference compound], the “Food intake effect over time” value in the data set on C57Bl6/J mice (10 mg/kg i.p., at 2 h and 3 h) is given as “fades away”. For the same molecule, in the data set with C57Bl6/J mice (20 mg/kg (highest assayed dosage)), the “Observable side effects / behavioural effects” value is listed as “marked behavioural effects”.
